In patent US20220395553A1, “CXCR4 ANTAGONIST PEPTIDES” (COHBAR, INC., priority 2019, published 2022):
Peptide text beside a SMILES is read from it.

Legend:
human CXCR4 [1] = molecular target: T1, human CXCR4 (Homo sapiens, UniProt P61073); test: IC50 for inhibition of CXCR4 activation, β-Arrestin recruitment (Example 22); assay type: cell-based; set-up: host or cells: C2C12 (mouse myoblast) CXCR4 β-Arrestin PathHunter cell line
Experimental: The assay was run with the DiscoverX protocol. β-Arrestin recruitment assays were performed by Eurofins-DiscoverX (Fremont, Calif.) using C2C12 CXCR4 β-Arrestin cell line (co-expressing ProLink tagged human CXCR4 and Enzyme Acceptor tagged β-Arrestin) and PathHunter detection kit. Peptides were initially prepared as 1 mM stock in H2O and tested in ten (10)-step concentration response curves using 3-fold dilution steps with 1 μM as highest concentration; a concentration range of 1 μM-0.05 nM was tested. C2C12 CXCR4 β-Arrestin cells were seed onto 384-well plates in standard medium. […] At the end of the 90 min incubation period, β-Arrestin recruitment in response to various treatments was quantified using a chemiluminescent complementation reporter assay to measure association of tagged human […] (ProLink tag) and tagged β-Arrestin (Enzyme Acceptor tag).

human CXCR4 [2] = molecular target: T1, human CXCR4; test: CXCR4/CXCL12 binding, HTRF format, single concentration (Example 23); set-up: host or cells: HEK293 (Tag-lite CXCR4 cells, frozen aliquots, transient expression); settings: 15 nM CXCR4R fluorescent probe, 3 hours, HEK293 Tag-lite CXCR4 cells
Experimental: Peptides were initially prepared as 1 mM stock in H2O and tested at a final concentration of 400 nM. Following the manufacture's protocol, a frozen aliquot of Tag-lite CXCR4 cells was thawed and immediately seeded onto 384-well plates in TLB. Immediately following the addition of cells, 400 nM peptide (final concentration) in TLB was added to the appropriate well. Then 15 nM (final concentration; EC80) of CXCR4R fluorescent probe was added to each well to initiate the HTRF assay. The plates were covered in aluminum foil and left at room temperature for 3 hours. Following the 3 hour incubation period, the plates were removed from the incubator and fluorescence measured using a Cytation 1 plate reader using a HTRF filter cube ([…]; BioTek; Winooski, Vt.). According manufacture's instruction data reduction was performed by calculating the ratio of 665 nm signal (TRF of 665 nm excitation by 620 emission; amount of CXCR4R fluorescent probe bound to terbium labeled CXCR receptor)/620 nm signal (620 excitation by 330 nm light source; normalization factor for amount of terbium labeled CXCR4 receptor in well)×10,000.

T1 sequence (P61073 whole entry): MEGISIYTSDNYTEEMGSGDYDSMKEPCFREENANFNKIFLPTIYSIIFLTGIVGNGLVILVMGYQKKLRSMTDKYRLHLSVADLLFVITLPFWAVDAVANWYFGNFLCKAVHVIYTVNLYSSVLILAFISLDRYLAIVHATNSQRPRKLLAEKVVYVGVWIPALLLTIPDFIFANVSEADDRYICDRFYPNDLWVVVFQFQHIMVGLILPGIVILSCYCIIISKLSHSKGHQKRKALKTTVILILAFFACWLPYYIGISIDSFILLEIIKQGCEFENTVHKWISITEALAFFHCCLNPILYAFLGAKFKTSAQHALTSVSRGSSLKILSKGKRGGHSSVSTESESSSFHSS

Compound	IC50 (human CXCR4 [1])	Percent Inhibition of CXCR4/CXCL12 Binding (400 nM peptide) (human CXCR4 [2])
CC(C)C[C@H](NC(=O)[C@H](CO)NC(=O)[C@H](CO)NC(=O)[C@H](CCCNC(=N)N)NC(=O)[C@@H](NC(=O)[C@H](CO)NC(=O)[C@H](Cc1c[nH]cn1)NC(=O)[C@H](Cc1c[nH]cn1)NC(=O)[C@H](Cc1ccc(O)cc1)NC(=O)[C@H](CCCNC(=N)N)NC(=O)[C@H](CCC(=O)O)NC(=O)[C@@H](N)CC(C)C)C(C)C)C(=O)O [compound 22] (H-LERYHHSVRSSL-OH; N-terminus and C-terminus assumed)	17 nM	14%
CC(C)C[C@H](NC(=O)[C@H](CO)NC(=O)[C@H](CO)NC(=O)[C@H](CCCNC(=N)N)NC(=O)[C@@H](NC(=O)[C@H](CO)NC(=O)[C@H](CC(N)=O)NC(=O)[C@H](Cc1c[nH]cn1)NC(=O)[C@H](Cc1ccc(O)cc1)NC(=O)[C@H](CCCNC(=N)N)NC(=O)[C@H](CCC(=O)O)NC(=O)[C@@H](N)CC(C)C)C(C)C)C(=O)N[C@@H](CCCNC(=N)N)C(=O)N1CCC[C@H]1C(=O)N[C@@H](Cc1ccc(O)cc1)C(=O)N[C@H](C(=O)N[C@@H](CCCCN)C(=O)O)[C@@H](C)O [compound 45] (H-LERYHNSVRSSLRPYTK-OH; N-terminus and C-terminus assumed)	121 nM	1%
CC(C)C[C@H](NC(=O)[C@H](CO)NC(=O)[C@H](CO)NC(=O)[C@H](CCCNC(=N)N)NC(=O)[C@@H](NC(=O)[C@H](CO)NC(=O)[C@H](Cc1c[nH]cn1)NC(=O)[C@H](CCC(N)=O)NC(=O)[C@H](Cc1ccc(O)cc1)NC(=O)[C@H](CCCNC(=N)N)NC(=O)[C@H](CCCNC(=N)N)NC(=O)[C@@H](N)CC(C)C)C(C)C)C(=O)N[C@@H](CCCNC(=N)N)C(=O)N1CCC[C@H]1C(=O)N[C@@H](Cc1ccc(O)cc1)C(=O)N[C@H](C(=O)N[C@@H](CCCCN)C(=O)O)[C@@H](C)O [compound 47] (H-LRRYQHSVRSSLRPYTK-OH; N-terminus and C-terminus assumed)	11 nM	5%
CC(C)C[C@H](NC(=O)[C@H](CO)NC(=O)[C@H](CO)NC(=O)[C@H](CCCNC(=N)N)NC(=O)[C@@H](NC(=O)[C@H](CO)NC(=O)[C@H](CCC(N)=O)NC(=O)[C@H](Cc1c[nH]cn1)NC(=O)[C@H](Cc1ccc(O)cc1)NC(=O)[C@H](CCCNC(=N)N)NC(=O)[C@H](CCCNC(=N)N)NC(=O)[C@@H](N)CC(C)C)C(C)C)C(=O)N[C@@H](CCCNC(=N)N)C(=O)N1CCC[C@H]1C(=O)N[C@@H](Cc1ccc(O)cc1)C(=O)N[C@H](C(=O)N[C@@H](CCCCN)C(=O)O)[C@@H](C)O [compound 50] (H-LRRYHQSVRSSLRPYTK-OH; N-terminus and C-terminus assumed)	121 nM	−5%

The remaining molecules from weak to strong by IC50 (human CXCR4 [1]), led by results:

IC50 (human CXCR4 [1])	Percent Inhibition of CXCR4/CXCL12 Binding (400 nM peptide) (human CXCR4 [2])	Compound
4 nM	12%	CC(C)C[C@H](NC(=O)[C@H](CO)NC(=O)[C@H](CO)NC(=O)[C@H](CCCNC(=N)N)NC(=O)[C@@H](NC(=O)[C@H](CO)NC(=O)[C@H](Cc1c[nH]cn1)NC(=O)[C@H](Cc1c[nH]cn1)NC(=O)[C@H](Cc1ccc(O)cc1)NC(=O)[C@H](CCCNC(=N)N)NC(=O)[C@H](CCCNC(=N)N)NC(=O)[C@@H](N)CC(C)C)C(C)C)C(=O)O [compound 28] (H-LRRYHHSVRSSL-OH; N-terminus and C-terminus assumed)
4 nM	−2%	CC(C)C[C@H](NC(=O)[C@H](CO)NC(=O)[C@H](CO)NC(=O)[C@H](CCCNC(=N)N)NC(=O)[C@@H](NC(=O)[C@H](CO)NC(=O)[C@H](Cc1c[nH]cn1)NC(=O)[C@H](CC(N)=O)NC(=O)[C@H](Cc1ccc(O)cc1)NC(=O)[C@H](CCCNC(=N)N)NC(=O)[C@H](CCCNC(=N)N)NC(=O)[C@@H](N)CC(C)C)C(C)C)C(=O)N[C@@H](CCCNC(=N)N)C(=O)N1CCC[C@H]1C(=O)N[C@@H](Cc1ccc(O)cc1)C(=O)N[C@H](C(=O)N[C@@H](CCCCN)C(=O)O)[C@@H](C)O [compound 41] (H-LRRYNHSVRSSLRPYTK-OH; N-terminus and C-terminus assumed)
